Here are results for four compounds from US9597342B2 (UWM Research Foundation, Inc., priority 2011, dated 2017).

Data set [1] can be described thus: Incubation with heat-inactivated human liver microsomes (stability control). As to conditions: 60 min. The method, then:
(§1) The test articles were incubated at two concentrations (1 and 10 μM) in 96-well plate format with active or heat-inactivated human liver microsomes and cofactors. Aliquots were removed at 0, 15, 30 and 60 minutes and mixed with acetonitrile containing internal standard for analysis. Samples were extracted and assayed using a liquid chromatography/tandem mass spectrometry (LC-MS/MS) analytical method.
(§2) The test articles (1 and 10 μM) were incubated with human liver microsomes (0.5 mg protein/ml) and appropriate cofactors (2.5 mM NADPH and 3.3 mM magnesium chloride) in 100 mM phosphate buffer, pH 7.4 (0.1% final DMSO), in a 37° C. water bath. Incubations with all compounds were initiated with the addition of microsomes. At selected time points (0, 15, 30 and 60 min), a single 100 μl aliquot was removed from each sample and mixed with 200 μl of chilled acetonitrile containing internal standard. Following brief vortexing and centrifugation, the samples were further diluted into a 96-well plate for subsequent LC-MS/MS analysis. All samples were assayed in duplicate.
(§3) Experimental controls consisted of: a) incubation of all components except test article for 0 and 60 min, b) incubation of midazolam (positive control) at 10 μM for 0, 15, 30 and 60 min, and c) incubation of 1 and 10 μM test article and 10 μM midazolam with heat-inactivated microsomes (0.5 mg protein/ml) for 0 and 60 min. All controls were assayed in duplicate.
(§4) Data from the metabolic stability assays were transferred to and processed in a Microsoft Excel spreadsheet. To determine metabolic stability, the percent remaining at each time point was calculated by dividing the peak area ratio of test article/internal standard at each time point by the peak area ratio at 0 min multiplied by 100.
A general note: Liver microsomes are a subcellular fraction often used to study metabolism.

For data set [2], the system named is rhesus monkeys. Briefly: Conflict procedure (anxiolytic and sedating effects) in rhesus monkeys. Particulars: i.v., cumulative dosing, data for one monkey (FIG. 14). The format is in vivo. The source says:
Other methods for evaluating compounds are known to those skilled in the art. For example, an assessment of anxiolytic effects of compounds can be accomplished objectively and quantitatively with operant-based conflict procedures, as described in Fischer et al. Neuropharmacology 59 (2010) 612-618. Briefly, behavior which is positively reinforced can be suppressed in these procedures by response-contingent administration of a noxious stimulus such as mild electric shock. […] The strength of conflict procedures is their predictive validity with respect to expected therapeutic effects in humans. Results from the Fischer et al. indicate that benzodiazepine-like drugs that have pharmacological activity for α2GABAA and/or α3GABAA receptors and low receptor activity at α 1GABAA and α5GABAA receptors may be useful, particularly as non-sedating anxiolytics. […]
Test sessions were conducted once or twice per week when monkeys reached stable performance, defined as the average rates of responding for component 1 and component 2 not varying by ±20% over five consecutive sessions, with no upward or downward trends. […] The dependent measure was the average rates of responding (responses/s), calculated by dividing responses by time during components 1 and 2, excluding responding during time outs or reinforcer delivery.

Data set [3] in a line: In vitro metabolic stability using human liver microsomes. As to the method:
The metabolic stability of 15 GABAA receptor ligands using human liver microsomes was studied. The test articles were incubated at two concentrations (1 and 10 μM) and aliquots (100 μl) were removed at various time points (0, 15, 30 and 60 minutes), and analyzed by LC-MS/MS.
as §1
Pooled human liver microsomes (Lot #38289, pool of 150 different male and female donor livers) were obtained from BD Biosciences Corporation (Woburn, Mass.). Microsomes were stored at ˜−135° C. until use.
as §2, §3
Samples were analyzed by LC-MS/MS in multiple reaction monitoring mode using positive-ion electrospray ionization. The details of the LC-MS/MS method can be provided upon request.
as §4

Each structure is given as a SMILES string.

On to `C#Cc1ccc2c(c1)C(c1ccccc1F)=NCc1c(C(=O)OCCCOC(=O)c3ncn4c3CN=C(c3ccccc3F)c3cc(C#C)ccc3-4)ncn1-2` [YT-III-271, Propane-1,3-Diyl-Bis-(8-Ethynyl-6-(2-Fluorophenyl)-4H-Benzo-[1]-Imidazo-[1,5-a]-[1,4]-Diazepine-3-Carboxylate)], for which the “Mean % Remaining vs T = 0 min, with HI (Heat Inactivated) Microsomes” value (shortened to “Mean % Remaining vs T = 0 min, with HI”) in data set [1] (1 μM) is recorded as 117%; in data set [1] (10 μM), 97.0%. For the same compound, the “anxiolytic effect (suppressed responding)” value in data set [2] was “clearly anxiolytic”. Moreover, in data set [2], the “sedating effect (non-suppressed responding)” value was “nonsedating”. Also, the “Mean % Remaining vs T = 0 min, Human Liver Microsomes” value was found to be 97.1% in data set [3] (1 μM, 15 min); 83.5% in data set [3] (1 μM, 30 min); 104% in data set [3] (10 μM, 15 min); 102% in data set [3] (10 μM, 30 min); 91.1% in data set [3] (10 μM, 60 min).

`C#Cc1ccc2c(c1)C(c1ccccc1)=NCc1c(C(=O)OCCCOC(=O)c3ncn4c3CN(C)C(=O)c3cc(Cl)ccc3-4)ncn1-2` had a melting point of 179 to 184 °C. In data set [1] (1 μM), the “Mean % Remaining vs T = 0 min, with HI” value was 141%. In addition, in data set [1] (10 μM), the “Mean % Remaining vs T = 0 min, with HI” value was found to be 114%. Further, the “Mean % Remaining vs T = 0 min, Human Liver Microsomes” value in data set [3] (1 μM, 15 min) was determined as 87.3%. Besides, in data set [3] (1 μM, 30 min), the “Mean % Remaining vs T = 0 min, Human Liver Microsomes” value turned out to be 39.4%. In addition, the “Mean % Remaining vs T = 0 min, Human Liver Microsomes” value in data set [3] (10 μM, 15 min) was found to be 107%. The “Mean % Remaining vs T = 0 min, Human Liver Microsomes” value in data set [3] (10 μM, 30 min) amounted to 104%. In data set [3] (10 μM, 60 min), the “Mean % Remaining vs T = 0 min, Human Liver Microsomes” value is listed as 82.8%.

For `C#Cc1ccc2c(c1)C(c1ccccc1F)=NCc1c(C(=O)NC)ncn1-2` [HJ-I-037, 8-Ethynyl-N-methyl-6-(2-fluorophenyl)-4H-benzo[f]imidazo[1,5-a][1,4]diazepine-3-carboxamide], the melting point was 235 to 236 °C. In data set [1] (1 μM), the “Mean % Remaining vs T = 0 min, with HI” value is 117%. In data set [1] (10 μM), the “Mean % Remaining vs T = 0 min, with HI” value was 108%. Further, in data set [3] (1 μM, 15 min), the “Mean % Remaining vs T = 0 min, Human Liver Microsomes” value is given as 97.7%. Further, the “Mean % Remaining vs T = 0 min, Human Liver Microsomes” value in data set [3] (1 μM, 30 min) is on record as 99.5%. For the same compound, the “Mean % Remaining vs T = 0 min, Human Liver Microsomes” value in data set [3] (1 μM, 60 min) is listed as 92.7%. The “Mean % Remaining vs T = 0 min, Human Liver Microsomes” value in data set [3] (10 μM, 15 min) was 96.8%. Also, the “Mean % Remaining vs T = 0 min, Human Liver Microsomes” value in data set [3] (10 μM, 30 min) is given as 103%. Further, in data set [3] (10 μM, 60 min), the “Mean % Remaining vs T = 0 min, Human Liver Microsomes” value stood at 103%.

As for `C#Cc1ccc2c(c1)C(c1ccccn1)=NCc1c(C(=O)NC)ncn1-2` [HJ-I-40, 8-Ethynyl-N-methyl-6-(pyridine-2-yl)-4H-benzo[f]imidazo[1,5-a][1,4]diazepine-3-carboxamide], the melting point is 215 to 216 °C. The “Mean % Remaining vs T = 0 min, with HI” value in data set [1] (1 μM) is reported as 110%. In data set [1] (10 μM), the “Mean % Remaining vs T = 0 min, with HI” value was 110%. Further, in data set [3] (1 μM, 15 min), the “Mean % Remaining vs T = 0 min, Human Liver Microsomes” value is on record as 109%. Moreover, in data set [3] (1 μM, 30 min), the “Mean % Remaining vs T = 0 min, Human Liver Microsomes” value is reported as 126%. Moreover, the “Mean % Remaining vs T = 0 min, Human Liver Microsomes” value in data set [3] (1 μM, 60 min) is 136%. Moreover, the “Mean % Remaining vs T = 0 min, Human Liver Microsomes” value in data set [3] (10 μM, 15 min) worked out at 104%. The “Mean % Remaining vs T = 0 min, Human Liver Microsomes” value in data set [3] (10 μM, 30 min) is listed as 106%. In addition, the “Mean % Remaining vs T = 0 min, Human Liver Microsomes” value in data set [3] (10 μM, 60 min) amounted to 110%.

As a reminder, the melting point is the temperature, or range, at which the solid turns liquid.
